Experimental data taken from PubChem BioAssay AID2060901 (Molecular Pharmacology Branch, DTP, NCI, 2025).

Tested on: 422866-222-R5-J1-PDC complex spheroids viability
Assay: Anticancer human tumor 422866-222-R5-J1-PDC patient-derived pancreatic adenocarcinoma cell line growth inhibition [RAS]
Conditions: for IC50: curve of first compound; for viability, T/C: stronger effect = lower value
Procedure, shortened: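 Tumour cells grown as complex spheroids with HUVEC endothelial cells and mesenchymal stem cells, treated with RAS pathway inhibitor combinations. Each agent spans half-log steps from near clinical Cmax, or 10 microM where Cmax is unknown.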

[1] = second compound 0.000949 µM, first compound 0.0316 µM
[2] = second compound 0.000949 µM, first compound 0.1 µM
[3] = second compound 0.000949 µM, first compound 0.316 µM
[4] = second compound 0.000949 µM, first compound 1 µM
[5] = second compound 0.000949 µM, first compound 3.16 µM
[6] = second compound 0.000949 µM, first compound 10 µM
[7] = second compound 0.003 µM, first compound 0.0316 µM
[8] = second compound 0.003 µM, first compound 0.1 µM
[9] = second compound 0.003 µM, first compound 0.316 µM
[10] = second compound 0.003 µM, first compound 1 µM
[11] = second compound 0.003 µM, first compound 3.16 µM
[12] = second compound 0.003 µM, first compound 10 µM
[13] = second compound 0.00949 µM, first compound 0.0316 µM
[14] = second compound 0.00949 µM, first compound 0.1 µM
[15] = second compound 0.00949 µM, first compound 0.316 µM
[16] = second compound 0.00949 µM, first compound 1 µM
[17] = second compound 0.00949 µM, first compound 3.16 µM
[18] = second compound 0.00949 µM, first compound 10 µM
[19] = second compound 0.03 µM, first compound 0.0316 µM
[20] = second compound 0.03 µM, first compound 0.1 µM
[21] = second compound 0.03 µM, first compound 0.316 µM
[22] = second compound 0.03 µM, first compound 1 µM
[23] = second compound 0.03 µM, first compound 3.16 µM
[24] = second compound 0.03 µM, first compound 10 µM
[25] = second compound 0.0949 µM, first compound 0.0316 µM
[26] = second compound 0.0949 µM, first compound 0.1 µM
[27] = second compound 0.0949 µM, first compound 0.316 µM
[28] = second compound 0.0949 µM, first compound 1 µM
[29] = second compound 0.0949 µM, first compound 3.16 µM
[30] = second compound 0.0949 µM, first compound 10 µM
[31] = second compound 0.3 µM, first compound 0.0316 µM
[32] = second compound 0.3 µM, first compound 0.1 µM
[33] = second compound 0.3 µM, first compound 0.316 µM
[34] = second compound 0.3 µM, first compound 1 µM
[35] = second compound 0.3 µM, first compound 3.16 µM
[36] = second compound 0.3 µM, first compound 10 µM
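Further: spheroids exposed to compounds for 7 days.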
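Wherever viability, T/C is given: 100% = DMSO vehicle control viability.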

## Cc1nc(N2CCC3(CC2)COC(C)C3N)c(CO)nc1Sc1ccnc(N)c1Cl (stereo unspecified) + CCn1c(-c2cccnc2C(C)OC)c2c3cc(ccc31)N1CCOC(CC(NC(=O)C(C(C)C)N(C)C(=O)C3(F)CCN(C(=O)C#CC(C)(C)N(C)C)CC3)C(=O)N3CCCC(N3)C(=O)OCC(C)(C)C2)C1
Second compound 0.000949 µM
  IC50: < 31.6 nM
Second compound 0.003 µM
  IC50: < 31.6 nM
Second compound 0.00949 µM
  IC50: < 31.6 nM
Second compound 0.03 µM
  IC50: < 31.6 nM
Second compound 0.0949 µM
  IC50: < 31.6 nM
Second compound 0.3 µM
  IC50: < 31.6 nM
[1]
  viability, T/C: 23.6%
[2]
  viability, T/C: 22.8%
[3]
  viability, T/C: 17.9%
[4]
  viability, T/C: 17.6%
[5]
  viability, T/C: 16.4%
[6]
  viability, T/C: 17.5%
[7]
  viability, T/C: 20.9%
[8]
  viability, T/C: 18.5%
[9]
  viability, T/C: 17.1%
[10]
  viability, T/C: 17.9%
[11]
  viability, T/C: 15.9%
[12]
  viability, T/C: 23.2%
[13]
  viability, T/C: 20%
[14]
  viability, T/C: 16.3%
[15]
  viability, T/C: 15.8%
[16]
  viability, T/C: 14.1%
[17]
  viability, T/C: 16.4%
[18]
  viability, T/C: 13.6%
[19]
  viability, T/C: 20.8%
[20]
  viability, T/C: 15.6%
[21]
  viability, T/C: 12.8%
[22]
  viability, T/C: 14.9%
[23]
  viability, T/C: 13.5%
[24]
  viability, T/C: 13.8%
[25]
  viability, T/C: 15.6%
[26]
  viability, T/C: 13.4%
[27]
  viability, T/C: 13.9%
[28]
  viability, T/C: 11.9%
[29]
  viability, T/C: 15.6%
[30]
  viability, T/C: 14.2%
[31]
  viability, T/C: 17.5%
[32]
  viability, T/C: 13.9%
[33]
  viability, T/C: 14.9%
[34]
  viability, T/C: 12.5%
[35]
  viability, T/C: 17.3%
[36]
  viability, T/C: 18.8%

## CCN1CCN(Cc2ccc(Nc3ncc(F)c(-c4cc(F)c5nc(C)n(C(C)C)c5c4)n3)nc2)CC1 + C#Cc1c(F)ccc2cc(O)cc(-c3ncc4c(N5CC6CCC(C5)N6)nc(OCC56CCCN5CC(F)C6)nc4c3F)c12
Second compound 0.0316 µM
  IC50: > 1000 nM
Second compound 0.1 µM
  IC50: > 1000 nM
Second compound 0.316 µM
  IC50: > 1000 nM
Second compound 1 µM
  IC50: < 3.16 nM
Second compound 3.16 µM
  IC50: < 3.16 nM
Second compound 10 µM
  IC50: < 3.16 nM
Second compound 0.0316 µM, first compound 0.00316 µM
  viability, T/C: 79%
Second compound 0.0316 µM, first compound 0.01 µM
  viability, T/C: 103%
Second compound 0.0316 µM, first compound 0.0316 µM
  viability, T/C: 88%
Second compound 0.0316 µM, first compound 0.1 µM
  viability, T/C: 59.5%
Second compound 0.0316 µM, first compound 0.316 µM
  viability, T/C: 69.3%
Second compound 0.0316 µM, first compound 1 µM
  viability, T/C: 69.7%
Second compound 0.1 µM, first compound 0.00316 µM
  viability, T/C: 87.2%
Second compound 0.1 µM, first compound 0.01 µM
  viability, T/C: 86.3%
Second compound 0.1 µM, first compound 0.0316 µM
  viability, T/C: 65.3%
Second compound 0.1 µM, first compound 0.1 µM
  viability, T/C: 62.4%
Second compound 0.1 µM, first compound 0.316 µM
  viability, T/C: 59%
Second compound 0.1 µM, first compound 1 µM
  viability, T/C: 77.4%
Second compound 0.316 µM, first compound 0.00316 µM
  viability, T/C: 73.3%
Second compound 0.316 µM, first compound 0.01 µM
  viability, T/C: 66.4%
Second compound 0.316 µM, first compound 0.0316 µM
  viability, T/C: 63.3%
Second compound 0.316 µM, first compound 0.1 µM
  viability, T/C: 55%
Second compound 0.316 µM, first compound 0.316 µM
  viability, T/C: 48.5%
Second compound 0.316 µM, first compound 1 µM
  viability, T/C: 73.1%
Second compound 1 µM, first compound 0.00316 µM
  viability, T/C: 48.3%
Second compound 1 µM, first compound 0.01 µM
  viability, T/C: 51.5%
Second compound 1 µM, first compound 0.0316 µM
  viability, T/C: 43%
Second compound 1 µM, first compound 0.1 µM
  viability, T/C: 33.5%
Second compound 1 µM, first compound 0.316 µM
  viability, T/C: 35.4%
Second compound 1 µM, first compound 1 µM
  viability, T/C: 55.8%
Second compound 3.16 µM, first compound 0.00316 µM
  viability, T/C: 28.2%
Second compound 3.16 µM, first compound 0.01 µM
  viability, T/C: 32%
Second compound 3.16 µM, first compound 0.0316 µM
  viability, T/C: 27.7%
Second compound 3.16 µM, first compound 0.1 µM
  viability, T/C: 28%
Second compound 3.16 µM, first compound 0.316 µM
  viability, T/C: 35.2%
Second compound 3.16 µM, first compound 1 µM
  viability, T/C: 42.1%
Second compound 10 µM, first compound 0.00316 µM
  viability, T/C: 23.2%
Second compound 10 µM, first compound 0.01 µM
  viability, T/C: 22.8%
Second compound 10 µM, first compound 0.0316 µM
  viability, T/C: 21.9%
Second compound 10 µM, first compound 0.1 µM
  viability, T/C: 19.4%
Second compound 10 µM, first compound 0.316 µM
  viability, T/C: 25.7%
Second compound 10 µM, first compound 1 µM
  viability, T/C: 35.2%

## C[C@@H](NC(=O)c1ncnc(N)c1Cl)c1ncc(C(=O)Nc2cc(C(F)(F)F)c(Cl)cn2)s1 + CCn1c(-c2cc(N3CCN(C)CC3)cnc2C(C)OC)c2c3cc(ccc31)-c1csc(n1)CC(NC(=O)C1CC1C)C(=O)N1CCCC(N1)C(=O)OCC(C)(C)C2
Second compound 0.000949 µM
  IC50: < 31.6 nM
Second compound 0.003 µM
  IC50: < 31.6 nM
Second compound 0.00949 µM
  IC50: < 31.6 nM
Second compound 0.03 µM
  IC50: < 31.6 nM
Second compound 0.0949 µM
  IC50: < 31.6 nM
Second compound 0.3 µM
  IC50: < 31.6 nM
[1]
  viability, T/C: 33.8%
[2]
  viability, T/C: 40.3%
[3]
  viability, T/C: 33.5%
[4]
  viability, T/C: 36.9%
[5]
  viability, T/C: 39.1%
[6]
  viability, T/C: 37.2%
[7]
  viability, T/C: 24.8%
[8]
  viability, T/C: 26.4%
[9]
  viability, T/C: 26.2%
[10]
  viability, T/C: 25.8%
[11]
  viability, T/C: 26.1%
[12]
  viability, T/C: 30.1%
[13]
  viability, T/C: 21%
[14]
  viability, T/C: 20.3%
[15]
  viability, T/C: 21.1%
[16]
  viability, T/C: 22.2%
[17]
  viability, T/C: 24.3%
[18]
  viability, T/C: 24.3%
[19]
  viability, T/C: 20.4%
[20]
  viability, T/C: 19.8%
[21]
  viability, T/C: 20.8%
[22]
  viability, T/C: 23.8%
[23]
  viability, T/C: 24.1%
[24]
  viability, T/C: 22.2%
[25]
  viability, T/C: 21.3%
[26]
  viability, T/C: 20.6%
[27]
  viability, T/C: 21.1%
[28]
  viability, T/C: 19.9%
[29]
  viability, T/C: 23.1%
[30]
  viability, T/C: 24.3%
[31]
  viability, T/C: 19.5%
[32]
  viability, T/C: 20.2%
[33]
  viability, T/C: 21.4%
[34]
  viability, T/C: 20.9%
[35]
  viability, T/C: 22.6%
[36]
  viability, T/C: 24.8%
